From ChEMBL document CHEMBL1156808, “Synthesis and characterization of iodinated tetrahydroquinolines targeting the G protein-coupled estrogen receptor GPR30” (J Med Chem, 2010)

Test system: Muscle tissue
Assay: Biodistribution in muscle of iv dosed NCr nu/nu mouse xenografted with GPR30 overexpressing human Hec50 cells after 2 hrs
Assay type: ADME, organism-based
Conditions: in vivo

Work on `O=C(NCCc1ccc2c(c1)[C@@H]1C=CC[C@@H]1[C@H](c1cc3c(cc1Br)OCO3)N2)Nc1cccc([125I])c1` yielded a Drug uptake of 0.52 % ID/g.
